Data taken from ChEMBL document CHEMBL4152229, “Synthesis and biological evaluation of 2,6-disubstituted-9H-purine, 2,4-disubstitued-thieno[3,2-d]pyrimidine and -7H-pyrrolo[2,3-d]pyrimidine analogues as novel CHK1 inhibitors” (Eur J Med Chem, 2018).
pIC50: −log10 of the molar value.

How the values were obtained:
HEK293 = assay: Antiproliferative activity against human HEK293 cells after 72 hrs by MTS assay; assay type: functional; conditions: HEK293, 72 h
[1] = target: T1, Serine/threonine-protein kinase Chk1 (Homo sapiens, UniProt O14757); assay: Inhibition of CHK1 (unknown origin) using Cdc25 peptide as substrate preincubated for 30 mins followed by substrate addition and measured after 60 mins by ADP-Glo kinase assay
T1 sequence (O14757 whole entry): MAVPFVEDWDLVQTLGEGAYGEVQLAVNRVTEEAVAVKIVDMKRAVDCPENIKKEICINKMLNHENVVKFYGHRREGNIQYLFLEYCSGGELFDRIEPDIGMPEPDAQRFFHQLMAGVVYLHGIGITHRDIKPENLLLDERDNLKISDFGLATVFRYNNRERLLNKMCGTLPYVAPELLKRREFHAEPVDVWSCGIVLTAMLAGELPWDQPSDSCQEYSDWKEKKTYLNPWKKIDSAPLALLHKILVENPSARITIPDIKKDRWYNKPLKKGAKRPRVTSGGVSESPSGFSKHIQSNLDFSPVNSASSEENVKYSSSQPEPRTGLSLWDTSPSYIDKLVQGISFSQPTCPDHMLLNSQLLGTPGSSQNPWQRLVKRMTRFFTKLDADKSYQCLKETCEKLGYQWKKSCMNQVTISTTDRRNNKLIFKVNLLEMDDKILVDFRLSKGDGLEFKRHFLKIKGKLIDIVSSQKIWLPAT

HT-29 [2] = assay: cells; conditions: Homo sapiens, HT-29, 72 h
Description: Antiproliferative activity against human HT-29 cells after 72 hrs by MTS assay

[3] = target: T2, Serine/threonine-protein kinase Chk1 (Homo sapiens) (UniProt O14757); assay: Inhibition of CHK1 (unknown origin) at 10 uM using Cdc25 peptide as substrate preincubated for 30 mins followed by substrate addition and measured after 60 mins by ADP-Glo kinase assay
T2 sequence (whole entry): T1 sequence (O14757 whole entry)

HT-29 [4] = assay: Cell cycle arrest in human HT-29 cells assessed as accumulation at G1 phase at 25 nM after 48 hrs by propidium iodide/RNase staining-based flow cytometric analysis (reference value: 62.1%); assay type: functional
HT-29 [5] = assay: Cell cycle arrest in human HT-29 cells assessed as accumulation at S phase at 25 nM after 48 hrs by propidium iodide/RNase staining-based flow cytometric analysis (reference value: 30.9%); assay type: functional
HT-29 [6] = assay: Cell cycle arrest in human HT-29 cells assessed as accumulation at G2 phase at 25 nM after 48 hrs by propidium iodide/RNase staining-based flow cytometric analysis (reference value: 7.0%); assay type: functional

Fc1cccc(Nc2nc(N3CCOCC3)c3nc[nH]c3n2)c1
GI50 (HEK293): 33.7 µM | pIC50 [1]: 5.44 | GI50 (HT-29 [2]): 60.8 µM | inhibition [3]: 92%

c1ccc(Nc2nc(NC3CCOCC3)c3nc[nH]c3n2)cc1
GI50 (HEK293): 31.5 µM | GI50 (HT-29 [2]): 80.3 µM | inhibition [3]: 61.5%

Fc1ccc(Nc2nc(NC3CCOCC3)c3nc[nH]c3n2)cc1
GI50 (HEK293): > 100 µM | GI50 (HT-29 [2]): 86.9 µM | inhibition [3]: 37.2%

c1ccc(Nc2nc(N3CCOCC3)c3cc[nH]c3n2)cc1
GI50 (HEK293): 64.7 µM | GI50 (HT-29 [2]): 58.3 µM | inhibition [3]: 44.5%

COc1cccc(Nc2nc(N3CCOCC3)c3nc[nH]c3n2)c1
GI50 (HEK293): 38.7 µM | pIC50 [1]: 5.44 | GI50 (HT-29 [2]): 72.6 µM | inhibition [3]: 84.9%

COc1ccccc1Nc1nc(N2CCOCC2)c2nc[nH]c2n1
GI50 (HEK293): > 100 µM | GI50 (HT-29 [2]): > 100 µM | inhibition [3]: 3.8%

Clc1cccc(Nc2nc(N3CCOCC3)c3nc[nH]c3n2)c1
GI50 (HEK293): 38.4 µM | pIC50 [1]: 5.55 | GI50 (HT-29 [2]): 34.8 µM | inhibition [3]: 77.3%

O=C(Nc1cccc(Nc2nc(N3CCOCC3)c3nc[nH]c3n2)c1)C(F)(F)F
GI50 (HEK293): 73.6 µM | GI50 (HT-29 [2]): 58 µM | inhibition [3]: 50%

Cc1cccc(Nc2nc(N3CCOCC3)c3nc[nH]c3n2)c1
GI50 (HEK293): 40.5 µM | pIC50 [1]: 5.90 | GI50 (HT-29 [2]): 67.6 µM | inhibition [3]: 85.2%

COc1ccc(Nc2nc(N3CCOCC3)c3cc[nH]c3n2)cc1
GI50 (HEK293): 63.6 µM | GI50 (HT-29 [2]): 38.4 µM | inhibition [3]: 16.7%

COc1cc(Nc2nc(N3CCOCC3)c3cc[nH]c3n2)cc(OC)c1OC
GI50 (HEK293): 58.7 µM | GI50 (HT-29 [2]): 50.4 µM | inhibition [3]: 26.9%

COc1cc(Nc2nc(N3CCOCC3)c3sccc3n2)cc(OC)c1OC
GI50 (HEK293): > 100 µM | GI50 (HT-29 [2]): 31.6 µM

N#Cc1cnc(Nc2cc(NC[C@H]3CNCCO3)c(C(F)(F)F)cn2)cn1 [SRA-737]
GI50 (HEK293): 1.39 µM | GI50 (HT-29 [2]): 9.22 µM

c1ccc2ncc(Nc3nc(N4CCOCC4)c4nc[nH]c4n3)cc2c1
GI50 (HEK293): 22.3 µM | GI50 (HT-29 [2]): 25.1 µM | inhibition [3]: 63.1%

FC(F)(F)c1cccc(Nc2nc(N3CCOCC3)c3nc[nH]c3n2)c1
GI50 (HEK293): 31.4 µM | GI50 (HT-29 [2]): 29.1 µM | inhibition [3]: 61.3%

NC(=O)c1ccc(Nc2nc(N3CCOCC3)c3nc[nH]c3n2)cn1
GI50 (HEK293): 72.2 µM | pIC50 [1]: 5.01 | GI50 (HT-29 [2]): 72.2 µM | inhibition [3]: 80.3%

COc1cc(Nc2nc(N3CCOCC3)c3nc[nH]c3n2)cc(OC)c1OC
GI50 (HEK293): > 100 µM | GI50 (HT-29 [2]): > 100 µM | inhibition [3]: 35.8%

Nc1ccn([C@@H]2O[C@H](CO)[C@@H](O)C2(F)F)c(=O)n1 [GEMCITABINE]
Activity (HT-29 [4]): 4.3% | Activity (HT-29 [5]): 10.5% | Activity (HT-29 [6]): 85.2%

c1cnc(Nc2nc(N3CCOCC3)c3nc[nH]c3n2)cn1
GI50 (HEK293): 27.2 µM | GI50 (HT-29 [2]): > 100 µM | inhibition [3]: 38.2%

COc1ccc(Nc2nc(N3CCOCC3)c3sccc3n2)cc1
GI50 (HEK293): > 100 µM | GI50 (HT-29 [2]): 29.7 µM

c1ccc(Nc2nc(N3CCOCC3)c3nc[nH]c3n2)cc1
GI50 (HEK293): 60.2 µM | pIC50 [1]: 5.59 | GI50 (HT-29 [2]): > 100 µM | inhibition [3]: 82.4%

NC(=O)Nc1cc(-c2cccc(F)c2)sc1C(=O)N[C@H]1CCCNC1 [AZD-7762]
GI50 (HEK293): 0.236 µM | GI50 (HT-29 [2]): 0.167 µM

FC(F)(F)Oc1cccc(Nc2nc(N3CCOCC3)c3nc[nH]c3n2)c1
GI50 (HEK293): > 100 µM | GI50 (HT-29 [2]): > 100 µM | inhibition [3]: 31.6%

c1cncc(Nc2nc(N3CCOCC3)c3nc[nH]c3n2)c1
GI50 (HEK293): 33.7 µM | pIC50 [1]: 5.09 | GI50 (HT-29 [2]): > 100 µM | inhibition [3]: 82.2%

c1ccc(Nc2nc(N3CCOCC3)c3sccc3n2)cc1
GI50 (HEK293): > 100 µM | GI50 (HT-29 [2]): 54.5 µM

COc1ccc(Nc2nc(N3CCOCC3)c3nc[nH]c3n2)cc1
GI50 (HEK293): > 100 µM | GI50 (HT-29 [2]): 74.5 µM | inhibition [3]: 51%
